Reference: patent EP2951180B1, “2,6,7,8 SUBSTITUTED PURINES AS HDM2 INHIBITORS” (Merck Sharp & Dohme Corp., priority 2013, dated 2014)
pIC50: −log10 of the molar value.

These molecules were tested against T1, HDM2 (Homo sapiens, UniProt Q00987) (assay: HDM2 FRET assay (inhibition of binding of FITC labeled p53-pocket peptide to HDM2)). Details: Table 10; read-out: FRET IC50.
T1 construct: Thioredoxin (N); made in house; host or cells: E. coli strain BL21(DE3)Rosetta
Procedure, shortened: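 Displacement of FITC-p53 peptide (3 nM) from His-tagged HDM2 (0.5 nM) is measured by Tb-to-fluorescein FRET in PBS, 0.01% BSA, 0.01% Tween-20. IC50 values derive from 10-point curves.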

T1 sequence (Q00987 17-125): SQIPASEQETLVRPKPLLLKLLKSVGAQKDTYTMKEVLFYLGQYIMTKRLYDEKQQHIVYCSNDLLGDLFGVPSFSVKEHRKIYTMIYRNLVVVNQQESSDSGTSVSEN

**Q.** With `C[C@@H](Nc1nc(C(=O)O)nc2nc(C3CCCCN3C)n(Cc3ccc(C(F)(F)F)cc3)c12)C1CCC1` (stereo partly drawn) [Example 10.23, 6-(((R)-1-Cyclobutylethyl)amino)-8-(1-methylpiperidin-2-yl)-7-(4-(trifluoromethyl)benzyl)-7H-purine-2-carboxylic acid] as the molecule, how does the pIC50 read?
**A.** The pIC50 was 7.32.

**Q.** How did the pIC50 turn out when `C[C@@H](Nc1nc(C(=O)O)nc2nc(C3CCCCN3)n(Cc3ccc(C(F)(F)F)cc3)c12)C1CCC1` (stereo partly drawn) [Example 10.24, 6-(((R)-1-Cyclobutylethyl)amino)-8-(piperidin-2-yl)-7-(4-(trifluoromethyl)benzyl)-7H-purine-2-carboxylic acid] was run?
**A.** Its pIC50 is 7.02.

**Q.** With `CCN1CCCCC1c1nc2nc(C(=O)O)nc(N[C@H](C)C3CCC3)c2n1Cc1ccc(C(F)(F)F)cc1` (stereo partly drawn) [Example 10.25, 6-(((R)-1-Cyclobutylethyl)amino)-8-(1-ethylpiperidin-2-yl)-7-(4-(trifluoromethyl)benzyl)-7H-purine-2-carboxylic acid] as the molecule, how does the pIC50 read?
**A.** The pIC50 was 7.45.

**Q.** How did the pIC50 turn out when `CCCN(c1nc2nc(C(=O)O)nc(N[C@H](C)C3CCC3)c2n1Cc1ccc(C(F)(F)F)cc1)[C@@H](C)c1cccc(F)c1` [Example 10.26, 6-{[(1R)-1-cyclobutylethyl]amino}-8-{[(1S)-1-(3-fluorophenyl)ethyl](propyl)amino}-7-[4-(trifluoromethyl)benzyl]-7H-purine-2-carboxylic acid] was run?
**A.** The pIC50 was 8.71.

**Q.** How did the pIC50 turn out when `C=CCN(c1nc2nc(C(=O)O)nc(N[C@H](C)C3CCC3)c2n1Cc1ccc(C(F)(F)F)cc1)[C@@H](C)c1cccc(F)c1` [Example 10.27, 8-(Allyl((S)-1-(3-fluorophenyl)ethyl)amino)-6-(((R)-1-cyclobutylethyl)amino)-7-(4-(trifluoromethyl)benzyl)-7H-purine-2-carboxylic acid] was run?
**A.** Its pIC50 is 8.01.

**Q.** `C=CCN(c1nc(C(=O)O)nc2nc(N[C@@H](C)c3cccc(F)c3)n(Cc3ccc(C(F)(F)F)cc3)c12)[C@H](C)C1CCC1` [Example 10.28, 6-(Allyl((R)-1-cyclobutylethyl)amino)-8-(((S)-1-(3-fluorophenyl)ethyl)amino)-7-(4-(trifluoromethyl)benzyl)-7H-purine-2-carboxylic acid] was tested. Which pIC50 did it give?
**A.** The pIC50 was 7.65.

**Q.** How did the pIC50 turn out when `C[C@@H](Nc1nc(C(=O)O)nc2nc(N(CC3CC3)[C@@H](C)c3ccccc3)n(Cc3ccc(C(F)(F)F)cc3)c12)C1CCC1` [Example 10.29, 6-(((R)-1-Cyclobutylethyl)amino)-8-((cyclopropylmethyl)((S)-1-phenylethyl)amino)-7-(4-(trifluoromethyl)benzyl)-7H-purine-2-carboxylic acid] was run?
**A.** The pIC50 was 7.45.

**Q.** `C=CCN(c1nc2nc(C(=O)O)nc(N[C@H](C)C3CCC3)c2n1Cc1ccc(C(F)(F)F)cc1)C(C)c1ccccn1` (stereo partly drawn) [Example 10.30, 8-(Allyl(1-(pyridin-2-yl)ethyl)amino)-6-(((R)-1-cyclobutylethyl)amino)-7-(4-(trifluoromethyl)benzyl)-7H-purine-2-carboxylic acid] was tested. Which pIC50 did it give?
**A.** Its pIC50 is 8.04.

**Q.** With `C=CCN(c1nc(C(=O)O)nc2nc(NC(C)c3ccccn3)n(Cc3ccc(C(F)(F)F)cc3)c12)[C@H](C)C1CCC1` (stereo partly drawn) [Example 10.31, 6-(allyl((R)-1-cyclobutylethyl)amino)-8-((1-(pyridin-2-yl)ethyl)amino)-7-(4-(trifluoromethyl)benzyl)-7H-purine-2-carboxylic acid] as the molecule, how does the pIC50 read?
**A.** The pIC50 was 7.26.

**Q.** How did the pIC50 turn out when `CCCN(c1nc2nc(C(=O)O)nc(N[C@H](C)C3CCC3)c2n1Cc1ccc(C(F)(F)F)cc1)C(C)c1ccccn1` (stereo partly drawn) [Example 10.32, 6-(((R)-1-cyclobutylethyl)amino)-8-(propyl(1-(pyridin-2-yl)ethyl)amino)-7-(4-(trifluoromethyl)benzyl)-7H-purine-2-carboxylic acid] was run?
**A.** The pIC50 was 8.43.

**Q.** How did the pIC50 turn out when `CC1CCN(C)C(c2nc3nc(C(=O)O)nc(N[C@H](C)C4CCC4)c3n2C[C@H]2CC[C@H](C)CC2)C1` (stereo partly drawn) [Example 10.33, 6-(((R)-1-Cyclobutylethyl)amino)-8-(1,4-dimethylpiperidin-2-yl)-7-((trans-4-methylcyclohexyl)methyl)-7H-purine-2-carboxylic acid] was run?
**A.** The pIC50 was 7.75.

**Q.** How did the pIC50 turn out when `CCN1CCC(C)CC1c1nc2nc(C(=O)O)nc(N[C@H](C)C3CCC3)c2n1C[C@H]1CC[C@H](C)CC1` (stereo partly drawn) [Example 10.34, 6-(((R)-1-Cyclobutylethyl)amino)-8-(1-ethyl-4-methylpiperidin-2-yl)-7-((trans-4-methylcyclohexyl)methyl)-7H-purine-2-carboxylic acid] was run?
**A.** Its pIC50 is 8.22.

Same assay, conditions: Table 11; read-out: FRET IC50

**Q.** How did the pIC50 turn out when `CC1CCCN(c2nc3nc(C(=O)O)nc(N[C@H](C)C4CCC4)c3n2C[C@H]2CC[C@H](C)CC2)C1C` (stereo partly drawn) [Example 11.1, 6-(((R)-1-cyclobutylethyl)amino)-8-(2,3-dimethylpiperidin-1-yl)-7-((trans-4-methylcyclohexyl)methyl)-7H-purine-2-carboxylic acid] was run?
**A.** Its pIC50 is 8.34.

**Q.** `CC(C)CC1CCCCN1c1nc2nc(C(=O)O)nc(N[C@H](C)C3CCC3)c2n1C[C@H]1CC[C@H](C)CC1` (stereo partly drawn) [Example 11.2, 6-(((R)-1-cyclobutylethyl)amino)-8-(2-isobutylpiperidin-1-yl)-7-((trans-4-methylcyclohexyl)methyl)-7H-purine-2-carboxylic acid] was tested. Which pIC50 did it give?
**A.** The pIC50 was 8.74.

**Q.** With `CC(C)CC1CCCCN1c1nc2nc(-c3noc(=O)[nH]3)nc(N[C@H](C)C3CCC3)c2n1C[C@H]1CC[C@H](C)CC1` (stereo partly drawn) [Example 11.3, 3-(6-(((R)-1-cyclobutylethyl)amino)-8-(2-isobutylpiperidin-1-yl)-7-((trans-4-methylcyclohexyl)methyl)-7H-purine-2-yl)-1,2,4-oxadiazol-5(4H)-one] as the molecule, how does the pIC50 read?
**A.** The pIC50 was 8.21.

**Q.** With `C[C@@H](Nc1nc(C(=O)O)nc2nc(N3CCCCC3C3CCCCC3)n(C[C@H]3CC[C@H](C)CC3)c12)C1CCC1` (stereo partly drawn) [Example 11.4, 6-(((R)-1-cyclobutylethyl)amino)-8-(2-cyclohexylpiperidin-1-yl)-7-((trans-4-methylcyclohexyl)methyl)-7H-purine-2-carboxylic acid] as the molecule, how does the pIC50 read?
**A.** Its pIC50 is 8.81.

**Q.** How did the pIC50 turn out when `C[C@@H](Nc1nc(-c2noc(=O)[nH]2)nc2nc(N3CCCCC3C3CCCCC3)n(C[C@H]3CC[C@H](C)CC3)c12)C1CCC1` (stereo partly drawn) [Example 11.5, 3-(6-(((R)-1-cyclobutylethyl)amino)-8-(2-cyclohexylpiperidin-1-yl)-7-((trans-4-methylcyclohexyl)methyl)-7H-purine-2-yl)-1,2,4-oxadiazol-5(4H)-one] was run?
**A.** Its pIC50 is 6.35.

**Q.** With `CC1CCCN(c2nc3nc(C(=O)O)nc(N[C@H](C)C4CCC4)c3n2C[C@H]2CC[C@H](C)CC2)C1c1ccccc1` (stereo partly drawn) [Example 11.6, 6-(((R)-1-cyclobutylethyl)amino)-8-(3-methyl-2-phenylpiperidin-1-yl)-7-((trans-4-methylcyclohexyl)methyl)-7H-purine-2-carboxylic acid] as the molecule, how does the pIC50 read?
**A.** Its pIC50 is 8.74.

**Q.** How did the pIC50 turn out when `CC1CCCN(c2nc3nc(-c4noc(=O)[nH]4)nc(N[C@H](C)C4CCC4)c3n2C[C@H]2CC[C@H](C)CC2)C1c1ccccc1` (stereo partly drawn) [Example 11.7, 3-(6-(((R)-1-cyclobutylethyl)amino)-8-(3-methyl-2-phenylpiperidin-1-yl)-7-((trans-4-methylcyclohexyl)methyl)-7H-purin-2-yl)-1,2,4-oxadiazol-5(4H)-one] was run?
**A.** Its pIC50 is 8.20.

**Q.** With `C[C@@H](Nc1nc(-c2noc(=O)[nH]2)nc2nc(N3CCC[C@H]3CF)n(C[C@H]3CC[C@H](C)CC3)c12)C1CCC1` [Example 11.8, 3-(6-{[(1R)-1-cyclobutylethyl]amino}-8-[(2S)-2-(fluoromethyl)pyrrolidin-1-yl]-7-[(trans-4-methylcyclohexyl)methyl]-7H-purin-2-yl)-1,2,4-oxadiazol-5(4H)-one] as the molecule, how does the pIC50 read?
**A.** Its pIC50 is 8.63.
